How the values were obtained:
UMUC-3 cells = experiment: miRNA expression by Real-Time PCR in UMUC-3 cells; format: cell-based, human; conditions: 100 nM Insulin, 2 hours
Procedure: FIGS. 8A-8B: The effect of dexamethasone treatment on cell migration and miRNA expression in UMUC-3 and T24 bladder cancer cells. Migration was measured in the UMUC-3 and T24 cells that were treated with either vehicle or 100 nM dexamethasone for 30 minutes prior to wounding, and is presented as the fold-change in the wound width remaining (FIG. 8A). Images of the migration assay at […] post wounding are shown, with wound edges marked at T0 (black solid line) and T15 (white dashed line). ANOVA p<0.001; Bonferoni comparisons ***, p<0.0001 (versus Vehicle) (±S.E.; n=6). Total RNA was extracted from the UMUC3 and T24 cells after treating with either vehicle, 100 nM dexamethasone, or 100 nM Insulin in dialyzed media for 2 hours before harvesting, and miRNA expression was measured by Real-Time PCR (FIG. 8B). *, p<0.05; (Dex versus Veh); $, p<0.05; (Ins versus Veh); ##, p<0.01; ##, p<0.001; (T24 versus UMUC3) (±S.E.; n=6).
Total RNA was extracted from cell cultures using the miRNeasy® Mini Kit (Qiagen). Total RNA was read on a NanoDrop 2000® spectrophotometer (Thermo Fisher Scientific, Wilmington, Del.) and cDNA was synthesized using the miScript RT Kit (Qiagen). […] The miScript Primer Assay® primers were purchased from Qiagen. Normalization was performed in separate reactions with primers to Hs_RNU6-2_11, At_U19_1, and Hs_SNORD61_11.

GRα [1] = experiment: Immunofluorescence of GRα in UMUC-3 cells; format: cell-based, human; conditions: 100 nM, 30 minutes, versus vehicle
Procedure: (§1) FIGS. 3A-3D: Dexamethasone and insulin treatment in T24 cells (FIGS. 3A-3B) and UMUC-3 cells (FIGS. 3C-3D). GRβ and GRα expression and location were measured using immunofluorescence with control (vehicle treatment), dexamethasone, or insulin treatments. […] Cells were treated with 100 nM insulin, 100 nM dexamethasone, or vehicle for 30 minutes. Secondary antibodies (labeling of human GRα or GRβ) are shown in green, DAPI (nuclei labeling) are shown in blue, a merge of the green and blue images are shown in panel 3 to represent localization, and a bright field image is shown in gray (scale bar=25 μm).
(§2) Cells were seeded onto a glass coverslip placed in a 6-well plate and grown were grown to desired confluence. […] Slides were then stained with either anti-hGRα Rabbit IgG or anti-hGRβ Rabbit IgG antibodies obtained from Antibody Research. […] Coverslips were planted onto slides with Fluoromount-G®, and DAPI was added to stain nuclei. Slides were magnified using a Leica Microscope with a 63X oil Immersion lens. Images were acquired in the XYZ plane in 1 μm steps with a 63X oil objective (NA 1.40). Images were acquired with the LAS AF® software in sequential scan mode. AlexaFluor488® was excited at 488 nm with collection at 500-558 nm and DAPI was excited with the multi-photon (MP) laser tuned to 790 nm with collection at 420-500 nm. Images are 2D projections of the of image stack as labeled. […]

GRβ [2] = experiment: Immunofluorescence of GRβ in UMUC-3 cells; format: cell-based, human; conditions: 100 nM, 30 minutes
Procedure: as §1, §2

GRβ [3] = experiment: Immunofluorescence of GRβ in T24 cells; format: cell-based, human
T24 cells = experiment: miRNA expression by Real-Time PCR in T24 cells; format: cell-based, human; conditions: 100 nM Insulin, 2 hours
Procedure: FIGS. 8A-8B: […] ANOVA p<0.001; Bonferoni comparisons ***, […]=6). […] Total RNA was extracted from cell cultures using the miRNeasy® Mini Kit (Qiagen). […] The miScript Primer Assay® primers were purchased from Qiagen. Normalization was performed in separate reactions with primers to Hs_RNU6-2_11, At_U19_1, and Hs_SNORD61_11. The cloning vector pCMV-MIR containing the miR144 sequence was purchased from Origene. Cells were seeded on a 6-well plate, and transient transfection of the plasmid was completed as described above. After 48 hours-post transfection, RNA was harvested.

GRα [4] = experiment: Immunofluorescence of GRα in T24 cells; format: cell-based, human
Procedure: FIGS. 3A-3D: Dexamethasone and insulin treatment in T24 cells (FIGS. 3A-3B) and UMUC-3 cells (FIGS. 3C-3D). GRβ and GRα expression and location were measured using immunofluorescence with control (vehicle treatment), dexamethasone, or insulin treatments. Cells were seeded onto coverslips in media containing 10% dialyzed FBS for 24 hours before treating. Cells were treated with 100 nM insulin, 100 nM dexamethasone, or vehicle for 30 minutes. Secondary antibodies (labeling of human GRα or GRβ) are shown in green, DAPI (nuclei labeling) are shown in blue, a merge of the green and blue images are shown in panel 3 to represent localization, and a bright field image is shown in gray (scale bar=25 μm).
Cells were seeded onto a glass coverslip placed in a 6-well plate and grown were grown to desired confluence. Cells were then fixed with 3% paraformaldehyde, permeated with PBS containing 0.25% Triton X (PBST), and blocked with PBST containing 1% BSA. Slides were then stained with either anti-hGRα Rabbit IgG or anti-hGRβ Rabbit IgG antibodies obtained from Antibody Research. Secondary staining was performed using anti-Rb IgG 488 antibody from Life Technologies. Coverslips were planted onto slides with Fluoromount-G®, and DAPI was added to stain nuclei. Slides were magnified using a Leica Microscope with a 63X oil Immersion lens. […]

E006AA cell lines = experiment: Migration of E006AA-Par and E006AA-hT prostate cancer cells; format: cell-based, human
Description: FIG. 15: Lentiviral shRNA suppression of human GRβ in E006AA-Par and E006AA-hT prostate cancer cells suppresses migration. *, P<0.05 and **, P<0.01 (scramble vs GRβ KD). N=12.

T24 bladder cancer cells = experiment: Scratch (wounding) migration assay in T24 cells; format: cell-based, human
Procedure: Cells were seeded on a 6-well plate and grown for 24 hours until a monolayer of 90% confluent cells was obtained. A scratch wound in the cell monolayer was introduced using a sterile pipette tip. Images were taken at the time of wounding, and every 5 hours thereafter. Migration was measured as the fold change of the width of the wound remaining. To determine miRNA and mRNA expression during the scratch (wounding assay), total RNA was collected using the miRNeasy® Mini Kit (Qiagen) (described above) at 0 and 3 hours after the migration.

GRβ [5] = experiment: GRβ expression in E006AA-Par prostate cancer cells; format: cell-based, human
Description: (§3) FIG. 10: Sweet-P blocks GRβ expression in lung and prostate cancer cells.

mTOR = experiment: Immunostaining of mTOR in T24 cells; format: cell-based, human; conditions: 10 nM Sweet-P, 48 hours
human GRβ mRNA = experiment: GRβ mRNA expression by Real-Time PCR in T24 cells; format: cell-based
Procedure: The human uroepithelial carcinoma cell lines UMUC-3 and T24 (ATCC) were routinely cultured and maintained in Minimum Essential Medium (MEM) containing 10% fetal bovine serum (FBS) with 1% antibiotic-antimycotic. Cells were maintained at 37° C. and 5% CO2. Media was changed to MEM containing 10% Dialyzed-FBS with 1% antibiotic antimycotic 24 hours before hormone treatments.
A peptide nucleic acid (PNA) (Sweet-P) conjugated to a cell penetrating peptide (CPP) targeting the miR144 binding site in the 3′UTR of the human GRβ was designed using the PANAGENE® website (www.panagene.com). The Sweet-P targeting sequence was: (TGCCATACACAGTAT) [SEQ ID NO:1]. The Sweet-P sequence targeted the miR144 binding site in the 3′ UTR of human GRβ. (FIG. 7.) All PNAs were attached to an O-linker and a modified tat protein (VQRKRQKLMP) [SEQ ID NO:2] for delivery into the cell. Treatment with Sweet-P was performed for 48 hrs before the cells were analyzed.

3′UTR of human GRβ = experiment: 3′UTR GRβ-Luc luciferase reporter assay in T24 cells; format: cell-based; conditions: Sweet-P at 0.1 nM, 1.0 nM, and 10 nM, 48 hours, versus 0 nM
Procedure: For transient transfection, cells were plated on a 6-well or 12-well dish in MEM containing 10% FBS. Cells were washed with OPTI-MEM and transfected using GeneFect® (Alkali Scientific, Inc.), according to the manufacturer's […] protocol. OPTI-MEM was removed after 12 h and MEM containing 10% FBS was added.
The expression vector pMirTarget containing the 3′UTR of hGRβ (hGRβ 3′UTR-luc) was purchased from Origene. The binding sites were mutated using the QuikChange Lightning Multi Site-Directed Mutagenesis Kits® (Agilent Technologies). Successful mutations were confirmed through sequencing by Operon MWG. Cells were seeded onto a 12-well plate and grown overnight. Transient transfection was performed as described above. To determine the effect of Sweet-P on the T24 bladder cancer cells, the cells were treated 24 h after transfection for 48 hours post transfection, 3′UTR GRβ-Luc WT or mutant expression was measured by luciferase, and pRL-CMV Renilla reporter for normalization to transfection efficiency, using the Promega dual luciferase assay system (Promega, Madison, Wis.).
A peptide nucleic acid (PNA) (Sweet-P) conjugated to a cell penetrating peptide (CPP) targeting the miR144 binding site in the 3′UTR of the human GRβ was designed using the PANAGENE® website (www.panagene.com). […] Treatment with Sweet-P was performed for 48 hrs before the cells were analyzed.

GRα [6] = target: T1, GRα (Homo sapiens, UniProt P04150); experiment: GRα controlled gene expression by Real-Time PCR in T24 cells; format: cell-based; conditions: Sweet-P 48 hours then 2 hours of dexamethasone
T1 construct: endogenous in cells; host or cells: T24 human uroepithelial carcinoma cells (ATCC)
T1 sequence (P04150 1-777): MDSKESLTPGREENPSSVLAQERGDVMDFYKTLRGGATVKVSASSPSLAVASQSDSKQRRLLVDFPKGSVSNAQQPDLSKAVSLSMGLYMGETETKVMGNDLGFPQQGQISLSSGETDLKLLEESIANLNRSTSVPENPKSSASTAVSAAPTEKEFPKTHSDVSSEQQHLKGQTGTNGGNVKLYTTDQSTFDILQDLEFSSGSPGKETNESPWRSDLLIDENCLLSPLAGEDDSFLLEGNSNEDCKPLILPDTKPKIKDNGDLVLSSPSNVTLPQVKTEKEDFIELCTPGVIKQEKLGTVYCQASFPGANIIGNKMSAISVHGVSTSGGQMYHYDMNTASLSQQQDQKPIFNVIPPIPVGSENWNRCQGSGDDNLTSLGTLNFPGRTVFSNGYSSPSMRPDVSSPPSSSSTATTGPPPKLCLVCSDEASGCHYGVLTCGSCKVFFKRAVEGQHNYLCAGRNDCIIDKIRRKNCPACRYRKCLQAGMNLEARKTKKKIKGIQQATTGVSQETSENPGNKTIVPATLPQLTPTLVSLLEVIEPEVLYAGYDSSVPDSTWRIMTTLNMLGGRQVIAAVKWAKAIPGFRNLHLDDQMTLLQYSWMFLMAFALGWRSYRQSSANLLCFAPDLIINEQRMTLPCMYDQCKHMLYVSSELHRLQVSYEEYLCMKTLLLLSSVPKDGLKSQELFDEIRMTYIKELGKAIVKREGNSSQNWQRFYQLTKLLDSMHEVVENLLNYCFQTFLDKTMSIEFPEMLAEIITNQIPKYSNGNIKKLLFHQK
Procedure: GRα controlled gene response was measured by Real-Time PCR for FKBP51, GILZ, p21, VEGFA, GRα, and GRβ. Cells were seeded in media containing 10% dialyzed FBS for 24 hours before treatment.
Total RNA was extracted from cell cultures using the 5-Prime PerfectPure® RNA Cell Kit (Fisher Scientific Company, LLC). Total RNA was read on a NanoDrop 2000® spectrophotometer (ThermoFisher Scientific, Wilmington, Del.) and cDNA was synthesized using High Capacity cDNA Reverse Transcription Kit (Applied Biosystems). PCR amplification of the cDNA was performed by quantitative real-time PCR using TrueAmp SYBR Green qPCR SuperMix® (Smart Bioscience). The thermocycling protocol consisted of 10 min at 95° C., 40 cycles of 15 sec at 95° C., 30 sec at 60° C., and 20 sec at 72° C., and finished with a melting curve ranging from 60-95° C. to allow distinction of specific products. Normalization was performed in separate reactions with primers to GAPDH.

GRβ [7] = experiment: GRβ expression in A549 lung cancer cells; format: cell-based, human
Description: as §3

PTEN = experiment: Immunostaining of PTEN in T24 cells; format: cell-based, human; conditions: 10 nM Sweet-P, 48 hours
[8] = 100 nM, 30 minutes, versus vehicle

For “insulin: insulin, hormone treatment at 100 nM”, the miR-181a expression (UMUC-3 cells) was “suppress”, the “GRα expression (immunofluorescence)” value (GRα [1]) was “no effect” and the GRβ localization (GRβ [2]) was “higher in the nucleus”. For the same substance, the “GRβ expression (immunofluorescence)” value (GRβ [2]; versus vehicle) was “significantly increased”, the GRβ localization (GRβ [3]; 100 nM, 30 minutes) was “no change” and the “GRβ expression (immunofluorescence)” value (GRβ [3]; [8]) was “significantly increased”. For the same substance, the “expression of miR-33a, miR-144, miR-181a, miR-181b, miR-181c, or miR-181d” value (T24 cells) was “did not significantly change” and the “GRα expression (immunofluorescence)” value (GRα [4]; [8]) was “significantly decreased (p<0.001)”.
For “Sweet-P: PNA TGCCATACACAGTAT [SEQ ID NO:1] attached to an O-linker and modified tat protein VQRKRQKLMP, targeting the miR144 binding site in 3′UTR of human GRβ (all peptide nucleic acid (PNA); O-linker and modified tat peptide attached, position not given here)”, the migration (E006AA cell lines; E006AA-Par and E006AA-hT cells, Sweet-P) was “significantly decreased”, the “migration (wound width remaining)” value (T24 bladder cancer cells; T24 cells, 10 nM Sweet-P for 48 hours prior to wounding) was “significantly (ANOVA: p<0.001) inhibited” and the GRβ expression (GRβ [5]) was “blocks”. The mTOR protein expression (mTOR) was “unaffected”, the “GRβ mRNA expression” value (human GRβ mRNA; Sweet-P at 1.0 nM, 10 nM, 50 nM, and 100 nM, 48 hours, versus 0 nM) was “significantly (p<0.05) decreased” and the “luciferase expression of the pMirTarget 3′ UTR hGRβ construct” value (3′UTR of human GRβ) was “significantly (p<0.001) reduced”. The “FKBP51 expression (GRα activity)” value (GRα [6]) was “enhancing expression”, the “tumor necrosis factor α (TNFα) expression (GRα activity)” value (GRα [6]) was “decreasing” and the GRβ expression (GRβ [7]) was “blocks”. The PTEN protein expression (PTEN) was “significantly (p<0.0001) increased”, the GRβ protein expression (GRβ [3]; 10 nM Sweet-P, 48 hours) was “reduced” and the GRα protein expression (GRα [4]; 10 nM Sweet-P, 48 hours) was “no effect”.
For “GRβ shRNA: pGFP-C-shLenti lentiviral GRβ shRNA (CCAGAAAGCACATCTCACACATTAATCTG) [reference compound]”, the migration (E006AA cell lines; E006AA prostate cancer cells, lentiviral shRNA versus scramble) was “significant reduction”, the migration (T24 bladder cancer cells; T24 GRβ shRNA cells versus T24 Scramble) was “significant (ANOVA: p<0.001) decrease” and the “knockdown of GRβ expression (reduction)” value (human GRβ mRNA; stable shRNA lentivirus, versus T24 Scramble) was 64%.

Source: US10457947B2, “Targeting of human glucocorticoid receptor beta in cancer” (The University of Toledo, priority 2016, dated 2019)
